# Reference: patent US20250262170A1, “COMBINATIONS OF BETA 2-ADRENERGIC RECEPTOR AGONISTS AND BETA 3-ADRENERGIC RECEPTOR AGONISTS, AND MEDICAL USES THEREOF” (ATROGI AB, priority 2022, published 2025)
# Molecular target: T1, β2-adrenergic receptor (Rattus norvegicus, UniProt P10608)
# T1 construct: endogenous in cells; host or cells: L6 myotubes differentiated from L6 myoblasts
# Test: Glucose uptake in L6-myotubes in the presence of the selective β2-adrenergic receptor antagonist ICI-118551
# Format: cell-based
# Conditions: 3H-2-deoxyglucose, increasing ICI-118551
# Experimental: L6-myoblasts were grown in Dulbecco's Modified Eagle's Medium (DMEM) containing 1 g/L glucose supplemented with 10% fetal bovine serum (FBS), 2 mM L-glutamine, 50 U/mL penicillin, […] streptomycin and 10 mM HEPES. Cells were plated at 1×10^5 cells per mL in 24-well plates. After reaching 90% confluence the cells were grown in medium containing 2% FBS for 7 days where upon cells differentiated into myotubes.
# The differentiated L6-myotubes were serum-starved overnight in medium containing 0.5% fatty-acid free BSA and stimulated with Compounds A and B at a final concentration of 1×10^−5 M in the presence of the selective β2-adrenergic receptor antagonist ICI-118551. After 1 h 40 min the cells were washed with warm, glucose free medium twice and another portion of agonist was added to the glucose free medium. After another 20 min of incubation the cells were exposed to 50 nM ^3H-2-deoxyglucose for 10 min before washed in ice cold glucose free medium three times and lysed in 400 μl/well 0.2 M NaOH for 1 h at 60° C. The cell lysate was mixed with 4 ml scintillation buffer (Emulsifier Safe, Perkin Elmer) and the radioactivity was detected in a […] (Tri-Carb 4810TR, Perkin Elmer).
# T1 sequence (P10608 whole entry): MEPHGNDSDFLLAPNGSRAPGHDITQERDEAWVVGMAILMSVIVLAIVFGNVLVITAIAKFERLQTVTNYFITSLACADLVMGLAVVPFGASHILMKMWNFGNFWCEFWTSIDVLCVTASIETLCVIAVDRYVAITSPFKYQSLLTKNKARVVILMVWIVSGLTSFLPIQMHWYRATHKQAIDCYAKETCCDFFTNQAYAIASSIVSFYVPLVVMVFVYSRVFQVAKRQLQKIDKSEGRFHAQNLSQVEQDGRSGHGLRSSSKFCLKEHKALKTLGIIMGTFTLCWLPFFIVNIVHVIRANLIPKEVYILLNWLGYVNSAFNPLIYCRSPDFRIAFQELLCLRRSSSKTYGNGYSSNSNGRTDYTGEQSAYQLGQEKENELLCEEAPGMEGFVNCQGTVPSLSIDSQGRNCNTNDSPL
row,Structure (SMILES),glucose uptake promoted by the agonist in the presence of ICI-118551
1,"CC(C)(C)NCC(O)c1cc(Cl)c(N)c(Cl)c1 (stereo not drawn) [clenbuterol, reference compound]",inhibited in a dose-dependent manner
2,CC(C)(C)NC[C@H](O)c1cccc(F)c1 [Compound A],inhibited in a dose-dependent manner

# Molecular target: T2, human β3-adrenergic receptor (Homo sapiens, UniProt P13945)
# T2 construct: expressed in transfected cells
# T2 sequence (P13945 whole entry): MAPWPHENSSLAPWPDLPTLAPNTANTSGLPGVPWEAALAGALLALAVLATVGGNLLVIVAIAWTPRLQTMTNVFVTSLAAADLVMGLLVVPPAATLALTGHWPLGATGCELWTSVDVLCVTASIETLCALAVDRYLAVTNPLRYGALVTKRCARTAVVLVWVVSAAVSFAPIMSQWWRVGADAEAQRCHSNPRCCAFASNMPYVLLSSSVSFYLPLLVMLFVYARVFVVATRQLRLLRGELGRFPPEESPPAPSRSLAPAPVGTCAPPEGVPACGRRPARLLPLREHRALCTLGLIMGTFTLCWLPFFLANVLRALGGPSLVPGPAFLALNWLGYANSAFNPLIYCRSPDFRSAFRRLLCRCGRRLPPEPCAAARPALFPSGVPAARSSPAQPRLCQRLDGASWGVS
# Test: cAMP levels in CHO-K1 cells expressing the human β3-adrenergic receptor
# Format: cell-based
# Conditions: 10 μM, 15 min
# Experimental: CHO-K1 cells stably expressing the human β3-adrenergic receptors were serum-starved overnight and stimulated with an agonist, final concentration 1×10^−5 M, for 15 min in stimulation buffer (HBSS supplemented with 1% BSA, 5 mM HEPES and 1 mM IBMX, pH 7.4) The medium was then aspirated and to end the reaction, 100 μL of 95% EtOH was added to each well of the 24-well plate and cells were kept at −20° C. overnight. The next day EtOH was allowed to evaporate and 250 μL of lysis buffer (1% BSA, 5 mM HEPES and 0.3% Tween-20, pH 7.4) was added to each well. The plate was kept at −80° C. for 30 min and thawed in room temperature. Intracellular cAMP levels were detected using an alpha screen cAMP kit (6760635D from Perkin Elmer). The activity for each compound is compared to that of isoproterenol.
row,Structure (SMILES),Activity (intracellular cAMP compared to that of isoproterenol)
1,"CC(C)(C[C@H]1CC[C@H](NS(C)(=O)=O)CC1)NC[C@H](O)c1cccc(F)c1 [Compound 45, N-((trans)-4-(2-(((R)-2-(3-fluorophenyl)-2-hydroxy-ethyl)amino)-2-methyl-propyl)cyclohexyl)methane-sulfonamide]",++ (activity of more than 75% of that of isoproterenol at 10 μM)

# Same assay, conditions: CHO-K1, 0.25 h, 15 min, read-out: Activity (intracellular cAMP compared to that of isoproterenol)
row,Structure (SMILES),Emax at 10 µM
1,"CC1(NC[C@H](O)c2cccc(O)c2)CCC1 [Compound 62, (R)-3-(1-hydroxy-2-((1-methylcyclobutyl)amino)-ethyl)phenol]",> 75%
2,"CO[C@H]1CC[C@H](C[C@H]2CC[C@H]([C@H](O)c3ccccc3F)N2)CC1 [Compound 48, (R)-(2-fluorophenyl)((2R,5R)-5-(((trans)-4-methoxycyclo-hexyl)methyl)pyrrolidin-2-yl)-methanol]",50 to 75%
3,"CCCS(=O)(=O)N[C@H]1CC[C@H](CC(C)(C)NC[C@H](O)c2cccc(F)c2)CC1 [Compound 31, N-((trans)-4-(2-(((R)-2-(3-fluorophenyl)-2-hydroxy-ethyl)amino)-2-methyl-propyl)cyclohexyl)propane-1-sulfonamide]",> 75%
4,"CC(C)CS(=O)(=O)N[C@H]1CC[C@@H](CC(C)(C)NC[C@H](O)c2cccc(F)c2)CC1 [Compound 16, N-((cis)-4-(2-(((R)-2-(3-fluorophenyl)-2-hydroxy-ethyl)amino)-2-methyl-propyl)cyclohexyl)-2-methyl-propane-1-sulfonamide]",> 75%
5,"CC(C)(CC[C@H]1CC[C@@H](O)CC1)NC[C@H](O)c1ccccc1F [Compound 50, (cis)-4-(3-(((R)-2-(2-fluoro-phenyl)-2-hydroxyethyl)-amino)-3-methylbutyl)-cyclohexan-1-ol]",50 to 75%
6,"CO[C@H]1CC[C@H](C[C@@H]2CC[C@H]([C@H](O)c3cccc(F)c3F)N2)CC1 [Compound 6, (R)-(2,3-difluorophenyl)-((2R,5S)-5-(((trans)-4-methoxycyclohexyl)methyl)-pyrrolidin-2-yl)methanol]",> 75%
7,"CC(=O)N[C@H]1CC[C@@H](C[C@@H]2CC[C@H]([C@H](O)c3cccc(F)c3F)N2)CC1 [Compound 1, N-((cis)-4-(((2S,5R)-5-((R)-(2,3-difluorophenyl)-(hydroxy)methyl)pyrrolidin-2-yl)methyl)cyclohexyl)-acetamide]",> 75%
8,"CNC(=O)N1CCC[C@@H](CC(C)(C)NC[C@H](O)c2cccc(F)c2)C1 [Compound 3, (S)-3-(2-(((R)-2-(3-fluorophenyl)-2-hydroxy-ethyl)amino)-2-methyl-propyl)-N-methylpiperidine-1-carboxamide]",> 75%
9,"CC(C)(CC[C@H]1CC[C@H](O)CC1)NC[C@H](O)c1ccccc1F [Compound 51, (trans)-4-(3-(((R)-2-(2-fluorophenyl)-2-hydroxy-ethyl)amino)-3-methylbutyl)-cyclohexan-1-ol]",> 75%
10,"CC(C)(C)[C@H]1CC[C@H]([C@H](O)c2cccc(F)c2)N1 [Compound 57, (R)-((2R,5R)-5-(tert-butyl)-pyrrolidin-2-yl)(3-fluoro-phenyl)methanol]",50 to 75%
11,"O[C@H](c1cccc(F)c1)[C@H]1CCC2(CCCC2)N1 [Compound 56, (R)-(3-fluorophenyl)((R)-1-azaspiro[4.4]nonan-2-yl)-methanol]",> 75%
12,"CC(C)(C)NCC(O)c1ccncc1O (stereo not drawn) [Compound 60, 4-(2-(tert-butylamino)-1-hydroxyethyl)pyridin-3-ol]",> 75%
13,"CC(C)(C[C@H]1CC[C@H](O)CC1)NC[C@H](O)c1cccc(F)c1 [Compound 52, (trans)-4-(2-(((R)-2-(3-fluorophenyl)-2-hydroxy-ethyl)amino)-2-methyl-propyl)cyclohexan-1-ol]",> 75%
14,"CC(C)(C[C@@H]1CCCN(C(=O)C(F)(F)F)C1)NC[C@H](O)c1cccc(F)c1 [Compound 9, 2,2,2-trifluoro-1-((S)-3-(2-(((R)-2-(3-fluorophenyl)-2-hydroxyethyl)amino)-2-methylpropyl)piperidin-1-yl)-ethan-1-one]",50 to 75%
15,"CCC[C@@H](C)NC[C@H](O)c1cccc(F)c1 [Compound 66, (R)-1-(3-fluorophenyl)-2-(((R)-pentan-2-yl)amino)-ethan-1-ol]",> 75%
16,"CC(C)(C[C@H]1CC[C@H](NS(C)(=O)=O)CC1)NC[C@H](O)c1cccc(C#N)n1 [Compound 35, N-((trans)-4-(2-(((S)-2-(6-cyanopyridin-2-yl)-2-hydroxyethyl)amino)-2-methylpropyl)cyclohexyl)-methanesulfonamide]",> 75%
17,"CC(C)(C)NC[C@H](O)c1cccc(F)c1F [Compound 65, (R)-2-(tert-butylamino)-1-(2,3-difluorophenyl)ethan-1-ol]",> 75%
18,"CC(C)(C[C@H]1CC[C@H](NS(=O)(=O)C2CC2)CC1)NC[C@H](O)c1cccc(F)c1 [Compound 25, N-((trans)-4-(2-(((R)-2-(3-fluorophenyl)-2-hydroxy-ethyl)amino)-2-methyl-propyl)cyclohexyl)cyclo-propanesulfonamide]",> 75%
19,"CCS(=O)(=O)N[C@H]1CC[C@H](CC(C)(C)NC[C@H](O)c2cccc(F)c2)CC1 [Compound 17, N-((trans)-4-(2-(((R)-2-(3-fluorophenyl)-2-ethyl)amino)-2-methylpropyl)cyclohexyl)-ethanesulfonamide]",> 75%
20,"CS(=O)(=O)N[C@H]1CC[C@H](C[C@@H]2CC[C@H]([C@H](O)c3cccc(F)c3)N2)CC1 [Compound 24, N-((trans)-4-(((2S,5R)-5-((R)-(3-fluorophenyl)-(hydroxy)methyl)pyrrolidin-2-yl)methyl)cyclohexyl)-methanesulfonamide]",> 75%
21,"CO[C@H]1CC[C@@H](C[C@@H]2CC[C@H]([C@H](O)c3cccc(F)c3F)N2)CC1 [Compound 7, (R)-(2,3-difluorophenyl)-((2R,5S)-5-(((cis)-4-methoxycyclohexyl)methyl)-pyrrolidin-2-yl)methanol]",50 to 75%
22,"CCS(=O)(=O)N[C@H]1CC[C@H](CC(C)(C)NC[C@H](O)c2cncc(F)c2)CC1 [Compound 21, N-((trans)-4-(2-(((R)-2-(5-fluoropyridin-3-yl)-2-hydroxyethyl)amino)-2-methylpropyl)cyclohexyl)-ethanesulfonamide]",> 75%
23,"CC(C)(C[C@H]1CC[C@H](NS(C)(=O)=O)CC1)NC[C@H](O)c1cncc(F)c1 [Compound 46, N-((trans)-4-(2-(((R)-2-(5-fluoropyridin-3-yl)-2-hydroxyethyl)amino)-2-methylpropyl)cyclohexyl) methanesulfonamide]",> 75%
24,"CC12CC(C1)[C@H]([C@H](O)c1cccc(F)c1)N2 [Compound 55, (R)-(3-fluorophenyl)((R)-1-methyl-2-azabicyclo[2.1.1]-hexan-3-yl)methanol]",50 to 75%
25,"CN(C)C(=O)N1CCC[C@@H](CC(C)(C)NC[C@H](O)c2cncc(F)c2)C1 [Compound 2, (S)-3-(2-(((R)-2-(5-fluoro-pyridin-3-yl)-2-hydroxy-ethyl)amino)-2-methyl-propyl)-N,N-dimethyl-piperidine-1-carboxamide]",50 to 75%
26,"O[C@H](c1cccc(F)c1)[C@H]1CC[C@@H](Cc2ccc(Cl)cc2)N1 [Compound 42, (R)-((2R,5S)-5-(4-chloro-benzyl)pyrrolidin-2-yl)(3-fluorophenyl)methanol]",> 75%
27,"CC(C)CS(=O)(=O)N[C@H]1CC[C@H](CC(C)(C)NC[C@H](O)c2cncc(F)c2)CC1 [Compound 20, N-((trans)-4-(2-(((R)-2-(5-fluoropyridin-3-yl)-2-hydroxyethyl)amino)-2-methylpropyl)cyclohexyl)-2-methylpropane-1-sulfonamide]",> 75%
